Results from patent US12162858B2, “Quinoline derivatives as inhibitors of AXL/MER RTK and CSF1R” (QURIENT CO., LTD., priority 2018, dated 2024).
Where two headings read alike, the source gives them in different places.

Tests used:
[1] = biological target: CSF1R (Ba/F3 cells) (Homo sapiens, UniProt P07333); assay: BaF3 viability assay, CSF1R-dependent cells; assay type: cell-based; details: read-out: Cellular CSF1R activity by Ba/F3 assay (IC50)
Description: In this system, IL-3-dependent Ba/F3 cells are modified to express an activated recombinant kinase (in the present case Axl, Mer and CSF1R). Following removal of IL-3, the modified cells are dependent on the activity of the recombinant kinase for survival and proliferation. Inhibition of such kinase(s) through test compounds reduces survival and proliferation of the cells.
Cell lines were maintained in growth media (GM) consisting of RPMI 1640 supplemented with 10% FBS. Cells in logarithmic-phase growth were harvested and 5,000 cells were distributed into each well of a 384-well plate in 50 μl GM. Parental cells (or experimental assays where specified) were further supplemented with 2 ng/ml IL-3 to support cell growth and survival. Fifty nanoliters of the indicated reference standard or experimental compound were added to appropriate wells (in duplicate) and the cells were cultured for 48 h at 37° C./5% CO2. Viability was determined by adding 10 μl Cell Titer Glo and measuring luminescence, which is reported as relative light units (RLU) measured in counts per second. The following calculations and formulas are used for data analysis using GraphPad Prism software: The curve fitting was made using the Dose response curves-Inhibition.

[2] = biological target: T1, Axl (Homo sapiens, UniProt P30530); assay: LanthaScreen Eu kinase binding assay for Axl
T1 sequence (P30530 26-894): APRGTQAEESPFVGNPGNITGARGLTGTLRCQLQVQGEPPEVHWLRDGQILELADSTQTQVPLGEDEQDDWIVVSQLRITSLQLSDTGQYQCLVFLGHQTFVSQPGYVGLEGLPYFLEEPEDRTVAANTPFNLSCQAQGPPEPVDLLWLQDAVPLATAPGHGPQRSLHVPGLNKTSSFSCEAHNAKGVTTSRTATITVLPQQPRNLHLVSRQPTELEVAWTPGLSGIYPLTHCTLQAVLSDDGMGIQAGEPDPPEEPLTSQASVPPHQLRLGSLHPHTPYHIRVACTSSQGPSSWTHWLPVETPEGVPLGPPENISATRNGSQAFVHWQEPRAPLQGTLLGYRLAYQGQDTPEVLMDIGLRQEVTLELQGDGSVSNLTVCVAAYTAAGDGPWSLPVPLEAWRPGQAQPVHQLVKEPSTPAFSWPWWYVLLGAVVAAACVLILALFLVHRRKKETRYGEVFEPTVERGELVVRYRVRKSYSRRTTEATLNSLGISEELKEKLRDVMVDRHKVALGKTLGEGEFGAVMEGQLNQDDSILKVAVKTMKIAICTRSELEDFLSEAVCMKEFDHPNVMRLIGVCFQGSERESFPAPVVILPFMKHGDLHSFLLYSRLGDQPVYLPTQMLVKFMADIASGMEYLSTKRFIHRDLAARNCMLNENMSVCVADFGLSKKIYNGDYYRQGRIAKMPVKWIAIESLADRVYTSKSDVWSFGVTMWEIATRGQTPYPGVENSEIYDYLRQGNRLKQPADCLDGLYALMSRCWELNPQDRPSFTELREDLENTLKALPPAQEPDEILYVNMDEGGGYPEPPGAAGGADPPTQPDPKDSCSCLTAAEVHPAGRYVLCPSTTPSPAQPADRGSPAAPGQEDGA
Method: LanthaScreen® Eu Kinase Binding assays were conducted at Life Technologies using the manufacturer's specifications for each kinase indicated.
Briefly, the principle behind this assay is based upon the binding and displacement of an Alexa Fluor 647-labeled tracer to the kinase of interest. Binding of the tracer to the kinase is detected using an EU-labeled anti-tag antibody. Simultaneous binding of both the tracer and antibody to the kinase gives rise to a FRET-signal. Binding of an inhibitor to the kinase competes for binding with the tracer, resulting in a loss of FRET-signal.
A given compound was diluted in DMSO to make a stock compound solution. The stock compound solution was serially diluted over eight steps in DMSO. Each diluted compound solution in DMSO was diluted in kinase buffer. Afterwards four kinds of working solution were prepared. First, Tracer-Working solution consists of Tracer 236 and Kinase Buffer. Second, Axl, Mer, Tyro3 or Met/anti-GST-AB-Working solution contained one of the kinases Axl, and Mer or anti-GST-AB (=anti glutathione-S-transferase antibody) in Kinase Buffer. Third, anti-GST-AB-Working solution was made with anti-GST-AB and Kinase Buffer. Last, in the DMSO-Working solution DMSO was added to Kinase Buffer to a final concentration to 3%. Each of the four kinds of working solutions were separately added to the assay plate and then incubated for 1 h at room temperature. After incubation, the assay plate was measured with respect to the FRET-Signal with the EnVision (Perkin Elmer) using the program LanthaHTRF-Assay. Data evaluation was done in the Quattro Workflow software. Kd (the equilibrium dissociation constant) values were calculated relative to vehicle (DMSO) control wells.

[3] = comparison of compounds of present invention (**) vs compounds of WO2016/166250 (*), read-out: Binding activity Axl (Kd)
[4] = read-out: Axl kinase binding activity (Kd)

Sequence of CSF1R (Ba/F3 cells) (P07333 whole entry, change not shown): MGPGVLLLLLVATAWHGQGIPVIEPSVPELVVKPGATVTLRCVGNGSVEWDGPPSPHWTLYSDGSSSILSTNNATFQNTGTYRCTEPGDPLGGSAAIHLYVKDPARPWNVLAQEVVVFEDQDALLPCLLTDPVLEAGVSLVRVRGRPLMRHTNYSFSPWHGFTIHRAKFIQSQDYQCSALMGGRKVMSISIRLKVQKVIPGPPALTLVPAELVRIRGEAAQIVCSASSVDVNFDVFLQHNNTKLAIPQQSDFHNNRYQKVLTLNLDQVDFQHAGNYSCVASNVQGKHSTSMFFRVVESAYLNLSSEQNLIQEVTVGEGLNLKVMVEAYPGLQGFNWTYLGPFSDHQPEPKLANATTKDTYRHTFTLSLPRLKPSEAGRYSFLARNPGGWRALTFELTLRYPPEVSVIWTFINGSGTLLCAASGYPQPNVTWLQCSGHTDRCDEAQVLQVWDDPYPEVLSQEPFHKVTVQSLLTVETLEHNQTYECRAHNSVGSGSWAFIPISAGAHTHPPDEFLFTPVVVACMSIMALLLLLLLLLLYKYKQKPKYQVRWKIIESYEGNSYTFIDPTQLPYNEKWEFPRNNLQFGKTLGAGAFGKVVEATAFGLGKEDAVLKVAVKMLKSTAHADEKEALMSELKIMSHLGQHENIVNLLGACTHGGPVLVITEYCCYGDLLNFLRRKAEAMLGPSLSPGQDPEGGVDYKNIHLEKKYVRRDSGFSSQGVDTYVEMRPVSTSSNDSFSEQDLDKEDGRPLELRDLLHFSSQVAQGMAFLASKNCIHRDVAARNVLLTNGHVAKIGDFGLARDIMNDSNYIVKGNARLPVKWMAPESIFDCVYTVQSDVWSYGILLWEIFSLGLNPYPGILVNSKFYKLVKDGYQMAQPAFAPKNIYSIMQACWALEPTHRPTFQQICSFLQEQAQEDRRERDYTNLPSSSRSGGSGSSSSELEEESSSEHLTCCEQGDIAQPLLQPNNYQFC

Compound | Kd [2, 3] [µM] | Kd [2, 4] [µM] | GI50 [1] [µM]
CCn1cc(OCC(F)(F)F)c(C(=O)Nc2ccc(Oc3ccnc4cc(OC)c(OC)cc34)cn2)n1 [Compound 4] | 0.0011 | < 0.1 | < 1
CCCn1cc(OCCNC)c(C(=O)Nc2ccc(Oc3ccnc4cc(OC)c(OC)cc34)cn2)n1 [Compound 140] | – | ≥ 0.5 | –
COc1cc2nccc(Oc3ccc(NC(=O)c4nn(C5CCNC5)cc4OCC(F)(F)F)cn3)c2cc1OC (centres unmarked) [Compound 132] | – | ≥ 0.5 | –
CNCCn1cc(OCC(F)(F)F)c(C(=O)Nc2ccc(Oc3ccnc4cc(OC)c(OC)cc34)nc2)n1 [Compound 137] | – | ≥ 0.5 | –
COc1cc2nccc(Oc3ccc(NC(=O)c4nn(C5CCN(C)C5)cc4OCC(F)(F)F)nn3)c2cc1OC (centres unmarked) [Compound 157] | – | 0.1 to 0.5 | –
COc1cc2nccc(Oc3ccc(NC(=O)c4nn(C5CCN(C)C5)cc4OCC(F)(F)F)cc3C)c2cc1OC (centres unmarked) [Compound 98] | – | 0.1 to 0.5 | –
COc1cc2nccc(Oc3ccc(NC(=O)c4nn(CCN)cc4OCC(F)(F)F)cn3)c2cc1OC [Compound 135] | – | ≥ 0.5 | –
CNCCn1cc(OCC(F)(F)F)c(C(=O)Nc2ccc(Oc3ccnc4cc(OC)c(OC)cc34)cc2)n1 [Compound 119] | – | 0.1 to 0.5 | –
COc1cc2nccc(Oc3ccc(NC(=O)c4nn(CCOC5CC5)cc4OCC(F)(F)F)nn3)c2cc1OC [Compound 120] | – | < 0.1 | –
COc1cc2nccc(Oc3ccc(NC(=O)c4nn(C5CC5)cc4OC(C)C)nn3)c2cc1OC [Compound 147] | – | < 0.1 | –
COc1cc2nccc(Oc3ccc(NC(=O)c4nn(C5CC5)cc4OCC4CNC4)nc3)c2cc1OC [Compound 144] | – | 0.1 to 0.5 | –

Now from value to compound, other results behind:

Kd [2, 3] [µM] | Kd [2, 4] [µM] | Compound | GI50 [1] [µM]
0.0032 | < 0.1 | COCCn1cc(OCC(F)(F)F)c(C(=O)Nc2ccc(Oc3ccnc4cc(OC)c(OC)cc34)cn2)n1 [Compound 10] | < 1
– | < 0.1 | CCCn1cc(OCC(F)F)c(C(=O)Nc2ccc(Oc3ccnc4cc(OC)c(OC)cc34)cn2)n1 [Compound 12] | < 1
– | < 0.1 | COCCOc1cn(CC(C)O)nc1C(=O)Nc1ccc(Oc2ccnc3cc(OC)c(OC)cc23)cn1 (centres unmarked) [Compound 150] | –
0.019 | < 0.1 | COc1cc2nccc(Oc3ccc(NC(=O)c4n[nH]cc4OCC(F)(F)F)nc3)c2cc1OC [Compound 16] | < 1
– | < 0.1 | CCCn1cc(OCC(F)(F)F)c(C(=O)Nc2ccc(Oc3ccnc4cc(OC)c(OC)cc34)cn2)n1 [Compound 7] | < 1
– | < 0.1 | COc1cc2nccc(Oc3ccc(NC(=O)c4nn(C5CCCC5)cc4OCC(F)(F)F)nn3)c2cc1OC [Compound 121] | –
– | < 0.1 | COc1cc2nccc(Oc3ccc(NC(=O)c4nn(CC(C)O)cc4OCC4CCC4)nc3)c2cc1OC (centres unmarked) [Compound 163] | –
– | < 0.1 | COc1cc2nccc(Oc3ccc(NC(=O)c4nn(CC(C)C)cc4OCC(F)(F)F)cn3)c2cc1OC [Compound 103] | –
– | < 0.1 | COc1cc2nccc(Oc3ccc(NC(=O)c4nn(C5CCOC5)cc4OCC(F)(F)F)nn3)c2cc1OC (centres unmarked) [Compound 128] | –
– | < 0.1 | COc1cc2nccc(Oc3ccc(NC(=O)c4nn(C5CC5)cc4OCC4COC4)nc3)c2cc1OC [Compound 143] | –
– | < 0.1 | COc1cc2nccc(Oc3ccc(NC(=O)c4nn(CCOC5CC5)cc4OCC(F)(F)F)nc3)c2cc1OC [Compound 153] | –
– | < 0.1 | COc1cc2nccc(Oc3ccc(NC(=O)c4nn(C5CC5)cc4NCC(F)(F)F)nc3)c2cc1OC [Compound 145] | –
– | < 0.1 | COc1cc2nccc(Oc3ccc(NC(=O)c4nn(C5CC5)cc4NCCC(F)(F)F)nn3)c2cc1OC [Compound 146] | –
